Ki data for ten compounds are collected here from patent US8299048B2, “Hexahydrocyclopentyl[f]indazole sulfonamides and derivatives thereof as selective glucocorticoid receptor modulators” (Merck Sharp & Dohme Corp., priority 2008, dated 2012).

Structures are written as SMILES.

The target of this assay is T1, glucocorticoid receptor (Homo sapiens, UniProt P04150).
T1 construct: endogenous in cells
T1 sequence (P04150 1-777): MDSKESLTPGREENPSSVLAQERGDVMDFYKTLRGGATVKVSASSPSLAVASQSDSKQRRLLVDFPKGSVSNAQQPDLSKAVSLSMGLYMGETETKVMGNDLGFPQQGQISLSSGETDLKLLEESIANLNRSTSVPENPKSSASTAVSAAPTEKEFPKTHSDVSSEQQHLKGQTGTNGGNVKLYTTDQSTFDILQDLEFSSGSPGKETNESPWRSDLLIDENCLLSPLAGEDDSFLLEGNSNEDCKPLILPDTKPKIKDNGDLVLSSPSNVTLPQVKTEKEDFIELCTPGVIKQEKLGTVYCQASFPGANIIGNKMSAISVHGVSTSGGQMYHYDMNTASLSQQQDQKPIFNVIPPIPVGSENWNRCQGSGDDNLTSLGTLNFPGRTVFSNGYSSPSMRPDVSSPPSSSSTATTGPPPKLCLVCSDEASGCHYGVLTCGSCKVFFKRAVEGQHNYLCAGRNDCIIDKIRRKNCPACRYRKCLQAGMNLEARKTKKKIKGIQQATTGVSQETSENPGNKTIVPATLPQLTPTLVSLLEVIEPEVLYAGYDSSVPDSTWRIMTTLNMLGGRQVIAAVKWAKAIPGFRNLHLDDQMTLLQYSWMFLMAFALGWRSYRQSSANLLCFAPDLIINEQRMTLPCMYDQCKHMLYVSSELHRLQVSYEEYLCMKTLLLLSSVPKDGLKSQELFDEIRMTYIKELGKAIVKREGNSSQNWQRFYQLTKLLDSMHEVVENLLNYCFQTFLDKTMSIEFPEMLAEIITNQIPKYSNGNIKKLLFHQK
Briefly: Ligand binding assay (GR BIND). The procedure, abridged: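 Displacement of tritiated dexamethasone (6 nM trace solution) from receptor in cell supernatant was measured after overnight incubation at 4 °C in molybdate-containing TEGM, pH 7.2, 2% ethanol. Hydroxylapatite pulled down the receptor–ligand complex for filter washing and scintillation counting, with dexamethasone as reference.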

In turn, `COC(=O)c1ccccc1CCN(C[C@H]1CCC2=Cc3c(cnn3-c3ccc(F)cc3)C[C@@]21C)S(=O)(=O)CC(F)(F)F` [Example 159, methyl 2-(2-{{[(4αR,5S)-1-(4-fluorophenyl)-4α-methyl-1,4,4α,5,6,7-hexahydrocyclopenta[f]indazol-5-yl]methyl}[(2,2,2-trifluoroethyl)sulfonyl]amino}ethyl)benzoate] had a Ki of 1.9 nM. This counts as single-digit nanomolar.

With `COC(=O)c1cc(Cl)ccc1CCN(C[C@H]1CCC2=Cc3c(cnn3-c3ccc(F)cc3)C[C@@]21C)S(=O)(=O)CC(F)(F)F` [Example 160, methyl 5-chloro-2-(2-{{[(4αR,5S)-1-(4-fluorophenyl)-4α-methyl-1,4,4α,5,6,7-hexahydrocyclopenta[f]indazol-5-yl]methyl}[(2,2,2-trifluoroethyl)sulfonyl]amino}ethyl)benzoate], the affinity, expressed as Ki, was 3.4 nM.

Compound `Cc1noc(C)c1S(=O)(=O)NC[C@H]1CCC2=Cc3c(cnn3-c3ccc(F)cc3)C[C@@]21C` [Example 161, N-{[(4αR,5S)-1-(4-fluorophenyl)-4α-methyl-1,4,4α,5,6,7-hexahydrocyclopenta[f]indazol-5-yl]methyl}-3,5-dimethylisoxazole-4-sulfonamide] had a Ki of 4.8 nM.

Turning to `COC(=O)c1ccccc1CS(=O)(=O)N(CC(O)C(F)(F)F)C[C@H]1CCC2=Cc3c(cnn3-c3ccc(F)cc3)C[C@@]21C` (stereo partly drawn) [Example 162, methyl 2-({[{[(4αR,5S)-1-(4-fluorophenyl)-4α-methyl-1,4,4α,5,6,7-hexahydrocyclopenta[f]indazol-5-yl]methyl}(3,3,3-trifluoro-2-hydroxypropyl)amino]sulfonyl}methyl)benzoate], the affinity corresponds to a Ki of 0.5 nM.

For `C[C@]12Cc3cnn(-c4ccc(F)cc4)c3C=C1CC[C@@H]2CN(CCc1ccccc1CO)S(=O)(=O)CC(F)(F)F` [Example 163, 2,2,2-trifluoro-N-{[(4αR,5S)-1-(4-fluorophenyl)-4α-methyl-1,4,4α,5,6,7-hexahydrocyclopenta[f]indazol-5-yl]methyl}-N-{2-[2-(hydroxymethyl)phenyl]ethyl}ethanesulfonamide], the Ki stood at 1.7 nM.

Regarding `C[C@]12Cc3cnn(-c4ccc(F)cc4)c3C=C1CC[C@@H]2CN(CC(O)C(F)(F)F)S(=O)(=O)Cc1ccccc1C(=O)O` (stereo partly drawn) [Example 164, 2-({[{[(4αR,5S)-1-(4-fluorophenyl)-4α-methyl-1,4,4α,5,6,7-hexahydrocyclopenta[f]indazol-5-yl]methyl}(3,3,3-trifluoro-2-hydroxypropyl)amino]sulfonyl}methyl)benzoic acid], the Ki was 3.2 nM.

With `C[C@]12Cc3cnn(-c4ccc(F)cc4)c3C=C1CC[C@@H]2CN(CCc1ccccn1)S(=O)(=O)Cc1ccccn1` [Example 165, N-{[(4αR,5S)-1-(4-fluorophenyl)-4α-methyl-1,4,4α,5,6,7-hexahydrocyclopenta[f]indazol-5-yl]methyl}-1-pyridin-2-yl-N-(2-pyridin-2-ylethyl)methanesulfonamide], the affinity corresponds to a Ki of 1.6 nM.

For `C[C@]12Cc3cnn(-c4ccc(F)cc4)c3C=C1CC[C@@H]2CN(CCc1ccccn1)S(=O)(=O)Cc1ccncc1` [Example 166, N-{[(4αR,5S)-1-(4-fluorophenyl)-4α-methyl-1,4,4α,5,6,7-hexahydrocyclopenta[f]indazol-5-yl]methyl}-1-pyridin-4-yl-N-(2-pyridin-2-ylethyl)methanesulfonamide], the affinity corresponds to a Ki of 1.6 nM.

Regarding `C[C@]12Cc3cnn(-c4ccc(F)cc4)c3C=C1CC[C@@H]2CN(CC(O)C(F)(F)F)S(=O)(=O)Cc1ccccc1C(N)=O` (stereo partly drawn) [Example 167, 2-({[{[(4αR,5S)-1-(4-fluorophenyl)-4α-methyl-1,4,4α,5,6,7-hexahydrocyclopenta[f]indazol-5-yl]methyl}(3,3,3-trifluoro-2-hydroxypropyl)amino]sulfonyl}methyl) benzamide], affinity was put at a Ki of 2.2 nM.

Compound `Cc1noc(C)c1S(=O)(=O)N(C[C@H]1CCC2=Cc3c(cnn3-c3ccc(F)cc3)C[C@@]21C)C[C@@H](C)O` [Example 168, N-{[(4αR,5S)-1-(4-fluorophenyl)-4α-methyl-1,4,4α,5,6,7-hexahydrocyclopenta[f]indazol-5-yl]methyl}-N-[(2R)-2-hydroxypropyl]-3,5-dimethylisoxazole-4-sulfonamide] returned a Ki of 1.5 nM.
